Test results as given in paper PMC9705435, “Thiocarbazate building blocks enable the construction of azapeptides for rapid development of therapeutic candidates” (Nature Communications, 2022).
Where “and” joins values, the source holds several entries; their conditions need not be identical. Equal entries are not always repeated. Numbered stars: 1 amine (or outer) side, 2 acyl side, 3 side chain; on linkers, the order of the positions; unused ones are H or OH. Square brackets hold non-standard residues; d marks the D form. Peptide text beside a SMILES is read from it. * marks the point of attachment. azaPhe = O=C(N(Cc1ccccc1)N[*:1])[*:2]; azaPro = O=C(N1CCCN1[*:1])[*:2]; X1 = N=C(N)NCCCN(N)C(=O)*; azaGly = NNC(=O)O

Tests used:
in vitro = details: male, C57BL/6J, mouse, blood
HMGB1/MD-2 binding = molecular target: T1, HMGB1/MD-2 binding (Homo sapiens, UniProt Q9Y6Y9); assay: SPR HMGB1/MD-2 binding inhibition assay; details: immobilized disulfide HMGB1, MD-2 0.25 µM
T1 construct: purchased R&D Systems 1787-MD
T1 sequence (Q9Y6Y9 17-160 limits assumed): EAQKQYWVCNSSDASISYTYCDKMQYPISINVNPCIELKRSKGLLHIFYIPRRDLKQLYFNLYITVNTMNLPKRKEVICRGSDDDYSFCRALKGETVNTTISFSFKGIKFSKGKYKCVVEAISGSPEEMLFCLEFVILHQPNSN

[1] = molecular target: T2, Human B2 (h) receptor (B2R) (Homo sapiens, UniProt P30411); assay: Human B2 (h) (agonist radioligand) receptor binding assay, [3H]bradykinin displacement; details: Eurofins Cerep report
T2 construct: host or cells: CHO cells
T2 sequence (P30411 1-391): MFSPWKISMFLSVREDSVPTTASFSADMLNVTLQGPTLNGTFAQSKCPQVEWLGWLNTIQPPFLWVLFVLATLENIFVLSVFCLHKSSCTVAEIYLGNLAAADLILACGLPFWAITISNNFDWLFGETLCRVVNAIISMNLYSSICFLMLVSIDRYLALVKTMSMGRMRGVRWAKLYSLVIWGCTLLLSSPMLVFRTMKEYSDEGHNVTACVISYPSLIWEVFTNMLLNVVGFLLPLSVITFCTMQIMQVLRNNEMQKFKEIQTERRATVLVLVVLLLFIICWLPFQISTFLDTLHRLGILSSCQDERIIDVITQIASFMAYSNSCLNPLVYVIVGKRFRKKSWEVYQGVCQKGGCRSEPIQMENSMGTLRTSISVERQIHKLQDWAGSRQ
From the text: The data was collected by CRO Eurofins Cerep (France) and the result is attached as an additional data file. B2R radioligand agonist binding displacement assay for determination of IC-50.
Test compounds (FI-U / [azaP2, azaF8-BK (70), FI-2V / azaF8-BK (68), and FI-8G / azaP2-BK (63)) were supplied to Eurofins in a blinded manner and run at five concentrations to determine the IC-50’s. Standard company control test compounds were used for assay validation. Experimental assays achieved inhibition of more than 50% and were considered to represent significant effects of the test compounds.
(B2(h)) was used as the agonist for B2R receptor binding. The results are expressed as a percent of control specific binding (measured specific binding /control specific binding)*100, and as a percent inhibition of control specific binding (100 minus (measured specific binding/ control specific binding)*100) obtained in the presence of the test compounds. The IC50 values (concentration causing a half-maximal inhibition of control specific binding) and Hill coefficients (nH) were determined by non-linear regression analysis of the competition curves generated with mean replicate values using Hill equation curve fitting Y=D+[ A-D / 1+(C/C50) nH] where Y = specific binding, A = left asymptote of the curve, D = right asymptote of the curve, C = compound concentration, C50 = IC50, and nH = slope factor. This analysis was performed using software developed at Cerep (Hill software) and validated by comparison with data generated by the commercial software SigmaPlot® 4.0 for […]
The inhibition constants (Ki) were calculated using the Cheng Prusoff equation. Ki=IC50/(1+L/Kd) where L = concentration of radioligand in the assay, and Kd = affinity of the radioligand for the receptor. A scatchard plot is used to determine the Kd. […]
9.1. Experimental Conditions
9.1.1. In Vitro Pharmacology: Binding Assays
Assay Source Ligand Conc. Kd Non Specific Incubation Detection Bibl.
(agonist recombinant (1 µM) RT counting
9.2. Analysis and expression of results
9.2.1. In Vitro Pharmacology: Binding Assays
The results are expressed as a percent of control specific binding measured specific binding *100 […]
and as a percent inhibition of control specific binding
100-( measured specific binding *100) […]
obtained in the presence of the test compounds.
The IC50 values (concentration causing a half-maximal inhibition of control specific binding) and Hill coefficients (nH) were determined by non-linear regression analysis of the competition curves generated with mean replicate values using Hill equation […]
where Y = specific binding, A = left asymptote of the curve, D = right asymptote of the curve, C = compound concentration, C50 = IC50, and nH = slope factor. This analysis was performed using software developed at Cerep (Hill software) and validated by […]
The inhibition constants (Ki ) were calculated using the Cheng Prusoff equation where L = concentration of radioligand in the assay, and KD = affinity of the radioligand for the receptor. A scatchard plot is used to […]

SMILES | half-life (in vitro) | IC50 (HMGB1/MD-2 binding) | half-life (in vitro; Ex-vivo stability t 1/2) | nH (Hill coefficient) [1]
NC(=O)[C@H](CCC(=O)O)NC(=O)[C@H](CO)NC(=O)[C@H](CO)NC(=O)N(N)Cc1ccccc1 [Compound 52, azaF^1SSE-NH2] | > 120 min | 249 nM |  | 
NC(=O)N(CCC(=O)O)NC(=O)[C@H](CO)NC(=O)[C@H](CO)NC(=O)[C@@H](N)Cc1ccccc1 [Compound 53, FSSazaE^4-NH2] |  | 397 nM | 2.6 ± 0.11 min | 
NN(Cc1ccccc1)C(=O)N[C@@H](CO)C(=O)N[C@@H](CO)C(=O)N[C@@H](CCC(=O)O)C(=O)O [Compound 54, azaF^1SSE-OH] | > 120 min | 127 nM |  | 
NC(=O)CC[C@H](NC(=O)[C@H](CO)NC(=O)[C@H](CO)NC(=O)N(N)Cc1ccccc1)C(=O)O [Compound 55, azaF^1SSQ-OH] | 24.4 ± 1.6 min | 159 nM |  | 
NC(=O)CC[C@H](NC(=O)[C@H](CO)NC(=O)[C@H](CO)NC(=O)N(N)Cc1ccccc1)C(N)=O [Compound 56, azaF^1SSQ-NH2] | > 120 min | 349 nM |  | 
NC(=O)CCN(NC(=O)[C@H](CO)NC(=O)[C@H](CO)NC(=O)N(N)Cc1ccccc1)C(N)=O [Compound 57, azaF^1SSazaQ^4-NH2] | > 120 min | 83 nM |  | 
N=C(N)NCCC[C@H](NC(=O)[C@H](Cc1ccccc1)NC(=O)[C@@H]1CCCN1C(=O)[C@H](CO)NC(=O)[C@H](Cc1ccccc1)NC(=O)CNC(=O)[C@@H]1CCCN1C(=O)[C@@H]1CCCN1C(=O)N(N)CCCNC(=N)N)C(=O)O [Compound 62] (X1-PPGFSPFR-OH) | 2.46 ± 0.05 min |  |  | 
N=C(N)NCCC[C@H](NC(=O)[C@H](Cc1ccccc1)NC(=O)[C@@H]1CCCN1C(=O)[C@H](CO)NC(=O)[C@H](Cc1ccccc1)NC(=O)CNC(=O)N1CCCN1C(=O)[C@@H]1CCCN1C(=O)[C@@H](N)CCCNC(=N)N)C(=O)O [Compound 64, RPazaP^3GFSPFR] | 2.63 ± 0.25 min |  |  | 
N=C(N)NCCC[C@H](NC(=O)[C@H](Cc1ccccc1)NC(=O)[C@@H]1CCCN1C(=O)[C@H](CO)NC(=O)[C@H](Cc1ccccc1)NC(=O)NNC(=O)[C@@H]1CCCN1C(=O)[C@@H]1CCCN1C(=O)[C@@H](N)CCCNC(=N)N)C(=O)O [Compound 65, RPPazaG^4FSPFR] (H-RPP[azaGly]FSPFR-OH; N-terminus and C-terminus assumed) | 4.33 ± 1.3 min |  |  | 
N=C(N)NCCC[C@H](NC(=O)[C@H](Cc1ccccc1)NC(=O)[C@@H]1CCCN1C(=O)[C@H](CO)NC(=O)N(Cc1ccccc1)NC(=O)CNC(=O)[C@@H]1CCCN1C(=O)[C@@H]1CCCN1C(=O)[C@@H](N)CCCNC(=N)N)C(=O)O [Compound 66, RPPGazaF^5SPFR] (H-RPPG[azaPhe]SPFR-OH; N-terminus and C-terminus assumed) | 14.7 ± 1.6 min |  |  | 
N=C(N)NCCC[C@H](NC(=O)[C@H](Cc1ccccc1)NC(=O)N1CCCN1C(=O)[C@H](CO)NC(=O)[C@H](Cc1ccccc1)NC(=O)CNC(=O)[C@@H]1CCCN1C(=O)[C@@H]1CCCN1C(=O)[C@@H](N)CCCNC(=N)N)C(=O)O [Compound 67, RPPGFSazaP^7FR] (H-RPPGFS[azaPro]FR-OH) | 2.38 ± 0.03 min |  |  | 
N=C(N)NCCC[C@H](N)C(=O)N1CCC[C@H]1C(=O)N1CCC[C@H]1C(=O)NCC(=O)N[C@@H](Cc1ccccc1)C(=O)N[C@@H](CO)C(=O)N1CCC[C@H]1C(=O)N[C@@H](Cc1ccccc1)C(=O)NN(CCCNC(=N)N)C(=O)O [Compound 69] | 42.6 ± 0.8 min |  |  | 
N=C(N)NCCC[C@H](NC(=O)N(Cc1ccccc1)NC(=O)[C@@H]1CCCN1C(=O)[C@H](CO)NC(=O)N(Cc1ccccc1)NC(=O)CNC(=O)[C@@H]1CCCN1C(=O)[C@@H]1CCCN1C(=O)[C@@H](N)CCCNC(=N)N)C(=O)O [Compound 71, RPPGazaF^5SPazaF^8R] (H-RPPG[azaPhe]SP[azaPhe]R-OH; N-terminus and C-terminus assumed) | 106 ± 1.8 min |  |  | 
N=C(N)NCCC[C@@H](N)C(=O)N[C@@H](CCCNC(=N)N)C(=O)N1CCC[C@H]1C(=O)N1C[C@H](O)C[C@H]1C(=O)NCC(=O)N[C@@H](Cc1ccccc1)C(=O)N[C@@H](CO)C(=O)N[C@H](Cc1ccccc1)C(=O)N[C@@H](Cc1ccccc1)C(=O)N[C@@H](CCCNC(=N)N)C(=O)O [NPC 567, reference compound] |  |  |  | 0.6 and 0.9
